Laboratory results reported in PMC3747139 (PLoS ONE, 2013).

Tested on: dsDNA (poly-dA-dT and poly-dT-dA)
Assay: SYBR Green melting study with dsDNA
Type: binding
Conditions: 5 µM dsDNA, 1 µM ligand; dsDNA alone 24°C
Protocol: When quadruplex DNA melts to form ssDNA structure, SG fluorescence intensity gradually reduces as SG has no binding to ssDNA. Each time, 5 µM of HQF DNA [d(T2AG3)4)], 5 µM of dsDNA (prepared by mixing equal concentration of poly-dA-dT and poly-dT-dA), 5 µM ssDNA ( poly dT alone) and 1 µM of each ligand was incubated at 4°C for 16 h, and used for melting studies. […] Affinity, stoichiometry and thermodynamic parameters for quadruplex-ligand complex were studied with 60 µM of ligand and 10 µM of HQF DNA using Microcal VP-ITC (Northampton, MA, USA). Ligand addition to G-quadruplex DNA was made every 180 seconds. Titration experiments were performed thrice and blank correction was made each time to minimize error.

**Q.** `Cc1cn([C@H]2C[C@H](n3cc(-c4ccc(Cl)cc4)nn3)[C@@H](CO)O2)c(=O)[nH]c1=O` [Ligand L3, 1-(4-(4-(4-chlorophenly)-1H-1,2,3-triazole-1-yl)-5-(hydroxymethyl)tetrahydrofuran-2-yl)-5-methylpyrimidine-2,3(1H,3H)-dione] was tested. Which “Tm of dsDNA with ligand” value did it give?
**A.** Its value is 25 °C.
